Laboratory results taken from patent US20180334436A1 (VIIV HEALTHCARE UK LIMITED, priority 2015, published 2018).

What follows are compounds tested on HIV (assay: MT4 assay (anti-HIV activity)). Conditions: Human immunodeficiency virus 1, 96 h, antiviral HIV activity in HTLV-1 transformed cell line MT-4; luciferase read 96 hours later; 10 point dose response.
Assay type: cell-based
Method: Antiviral HIV activity and cytotoxicity values for compounds of the invention from Table 1 were measured in parallel in the HTLV-1 transformed cell line MT-4 based on the method previously described (Hazen et al., 2007, In vitro antiviral activity of the novel, tyrosyl-based human immunodeficiency virus (HIV) type 1 protease inhibitor brecanavir (GW640385) in combination with other antiretrovirals and against a panel of protease inhibitor-resistant HIV (Hazen et al., “In vitro antiviral activity of the novel, tyrosyl-based human immunodeficiency virus (HIV) type 1 protease inhibitor brecanavir (GW640385) in combination with other antiretrovirals and against a panel of protease inhibitor-resistant HIV”, Antimicrob. Agents Chemother. 2007, 51: 3147-3154; and Pauwels et al., “Sensitive and rapid assay on MT-4 cells for the detection of antiviral compounds against the AIDS virus”, J. of Virological Methods 1987, 16: 171-185).
Luciferase activity was measured 96 hours later by adding a cell titer glo (Promega, Madison, Wis.). Percent inhibition of cell protection data was plotted relative to no compound control. Under the same condition, cytotoxicity of the compounds was determined using cell titer Glo™ (Promega, Madison, Wis.). IC50s were determined from a 10 point dose response curve using 3-4-fold serial dilution for each compound, which spans a concentration range >1000 fold.
These values are plotted against the molar compound concentrations using the standard four parameter logistic equation:
y=((Vmax*x̂n)/(K̂n+x̂n))+Y2
Y2=minimum y n=slope factor
Vmax=maximum y x=compound concentration [M]

First: COc1c(F)cccc1S(=O)(=O)N1CCc2c(C)c([C@H](OC(C)(C)C)C(=O)O)c(-c3ccc(C)cc3)c(C)c2C1 [Example 64, (S)-2-(tert-butoxy)-2-(2-((3-fluoro-2-methoxyphenyl)sulfonyl)-5,8-dimethyl-7-(p-tolyl)-1,2,3,4-tetrahydroisoquinolin-6-yl)acetic Acid]
Second: Cc1ccc(-c2c(C)c3c(c(C)c2C(OC(C)(C)C)C(=O)O)CN(c2ccccc2)CC3)cc1 (stereo not drawn) [Example 8, 2-(tert-Butoxy)-2-(5,8-dimethyl-2-phenyl-6-(p-tolyl)-1,2,3,4-tetrahydroisoquinolin-7-yl)acetic Acid]
The IC50 of the first is 73-fold lower: 89 nM for the first, 6480 nM for the second.

Going from Cc1c(-c2c(C)c3c(c(C)c2[C@H](OC(C)(C)C)C(=O)O)CCN(C(=O)C2CCCCC2)C3)cc(F)c2c1CCCO2 [Example 79, (S)-2-(tert-Butoxy)-2-((R)-2-(cyclohexanecarbonyl)-7-(8-fluoro-5-methylchroman-6-yl)-5,8-dimethyl-1,2,3,4-tetrahydroisoquinolin-6-yl)acetic Acid] to Cc1c(-c2c(C)c3c(c(C)c2[C@H](OC(C)(C)C)C(=O)O)CCN(CC2CCCCC2)C3)cc(F)c2c1CCCO2 [Example 85, (S)-2-(tert-Butoxy)-2-((R)-2-(cyclohexylmethyl)-7-(8-fluoro-5-methylchroman-6-yl)-5,8-dimethyl-1,2,3,4-tetrahydroisoquinolin-6-yl)acetic Acid], the IC50 falls from 35 nM to 14 nM (2.5-fold). The second is the more potent here.

Cc1c(-c2c(C)c3c(c(C)c2[C@H](OC(C)(C)C)C(=O)O)CC(=O)N(C2CCOCC2)C3)cc(F)c2c1CCCO2 (atropisomer, axis not shown) [Example 108, (S)-2-(tert-butoxy)-2-((R)-7-(8-fluoro-5-methylchroman-6-yl)-5,8-dimethyl-3-oxo-2-(tetrahydro-2H-pyran-4-yl)-1,2,3,4-tetrahydroisoquinolin-6-yl)acetic Acid] and Cc1c(-c2c(C)c3c(c(C)c2[C@H](OC(C)(C)C)C(=O)O)CC(=O)N(CC2CCOCC2)C3)cc(F)c2c1CCCO2 (atropisomer, axis not shown) [Example 113] are within 1.5-fold of each other in IC50: 13 nM for the first, 14 nM for the second.

Compared with Cc1ccc(-c2c(C)c3c(c(C)c2[C@H](OC(C)(C)C)C(=O)O)CN(C(=O)N2CCCCC2)CC3)cc1 [Example 12, (S)-2-(tert-Butoxy)-2-(5,8-dimethyl-2-(piperidine-1-carbonyl)-6-(p-tolyl)-1,2,3,4-tetrahydroisoquinolin-7-yl)acetic Acid], Cc1ccc(-c2c(C)c3c(c(C)c2[C@H](OC(C)(C)C)C(=O)O)CCN(C(=O)C(=O)N2CCCCC2)C3)cc1 [Example 46, (S)-2-(tert-butoxy)-2-(5,8-dimethyl-2-(2-oxo-2-(piperidin-1-yl)acetyl)-7-(p-tolyl)-1,2,3,4-tetrahydroisoquinolin-6-yl)acetic Acid] is 2-fold higher in IC50: 139 nM for the first, 276 nM for the second.

Compared with Cc1ccc(-c2c(C)c3c(c(C)c2[C@H](OC(C)(C)C)C(=O)O)CCN(C2CCC(C)(C)CC2)C3)cc1 [Example 40, (S)-2-(tert-butoxy)-2-(2-(4,4-dimethylcyclohexyl)-5,8-dimethyl-7-(p-tolyl)-1,2,3,4-tetrahydroisoquinolin-6-yl)acetic Acid], Cc1ccc(-c2c(C)c3c(c(C)c2C(OC(C)(C)C)C(=O)O)CN(CC2CCCCC2)CC3)cc1 (stereo not drawn) [Example 3, 2-(tert-Butoxy)-2-(2-(cyclohexylmethyl)-5,8-dimethyl-6-(p-tolyl)-1,2,3,4-tetrahydroisoquinolin-7-yl)acetic Acid] is 290-fold higher in IC50: 11 nM for the first, 3200 nM for the second.

Going from Cc1ccc(-c2c(C)c3c(c(C)c2[C@H](OC(C)(C)C)C(=O)O)CCN(C(C)C2CCCCC2)C3)cc1 (stereo partly drawn) [Example 70, (2S)-2-(tert-butoxy)-2-(2-(1-cyclohexylethyl)-5,8-dimethyl-7-(p-tolyl)-1,2,3,4-tetrahydroisoquinolin-6-yl)acetic Acid] to Cc1ccc(-c2c(C)c3c(c(C)c2[C@H](OC(C)(C)C)C(=O)O)CCN(CC2CCCCC2)C3)cc1 [Example 31, (S)-2-(tert-Butoxy)-2-(2-(cyclohexylmethyl)-5,8-dimethyl-7-(p-tolyl)-1,2,3,4-tetrahydroisoquinolin-6-yl)acetic Acid], the IC50 falls from 130 nM to 50 nM (2.6-fold). The second is the more potent here.

First: Cc1ccc(-c2c(C)c3c(c(C)c2[C@H](OC(C)(C)C)C(=O)O)CN(S(=O)(=O)C2CCCCC2)CC3)cc1 [Example 19, (S)-2-(tert-Butoxy)-2-(2-(cyclohexylsulfonyl)-5,8-dimethyl-6-(p-tolyl)-1,2,3,4-tetrahydroisoquinolin-7-yl)acetic Acid]
Second: Cc1ccc(-c2c(C)c3c(c(C)c2C(OC(C)(C)C)C(=O)O)CN(CC(=O)N2CCCCC2)CC3)cc1 (stereo not drawn) [Example 7, 2-(tert-Butoxy)-2-(5,8-dimethyl-2-(2-oxo-2-(piperidin-1-yl)ethyl)-6-(p-tolyl)-1,2,3,4-tetrahydroisoquinolin-7-yl)acetic Acid]
The IC50 of the first is 3.5-fold higher: 1450 nM for the first, 418 nM for the second. The second is the more potent here.

Going from Cc1ccc(-c2c(C)c3c(c(C)c2[C@H](OC(C)(C)C)C(=O)O)CC(=O)N(Cc2ccccc2)C3)cc1 [Example 101, (S)-2-(2-Benzyl-5,8-dimethyl-3-oxo-7-(p-tolyl)-1,2,3,4-tetrahydroisoquinolin-6-yl)-2-(tert-butoxy)acetic Acid] to Cc1ccc(-c2c(C)c3c(c(C)c2[C@H](OC(C)(C)C)C(=O)O)CCN(CCc2ccccc2)C3)cc1 [Example 34, (S)-2-(tert-Butoxy)-2-(5,8-dimethyl-2-phenethyl-7-(p-tolyl)-1,2,3,4-tetrahydroisoquinolin-6-yl)acetic Acid], the IC50 rises from 4 nM to 165 nM (41-fold).

First: COc1c(F)cccc1C(=O)N1CCc2c(C)c([C@H](OC(C)(C)C)C(=O)O)c(-c3cc(F)c4c(c3C)CCCO4)c(C)c2C1 [Example 82, (S)-2-(tert-Butoxy)-2-((R)-2-(3-fluoro-2-methoxybenzoyl)-7-(8-fluoro-5-methylchroman-6-yl)-5,8-dimethyl-1,2,3,4-tetrahydroisoquinolin-6-yl)acetic Acid]
Second: Cc1c(-c2c(C)c3c(c(C)c2[C@H](OC(C)(C)C)C(=O)O)CCN(Cc2ccccc2)C3)cc(F)c2c1CCCO2 [Example 90, (S)-2-((R)-2-Benzyl-7-(8-fluoro-5-methylchroman-6-yl)-5,8-dimethyl-1,2,3,4-tetrahydroisoquinolin-6-yl)-2-(tert-butoxy)acetic Acid]
The IC50 of the first is 3.4-fold lower: 20 nM for the first, 67 nM for the second.

Going from Cc1ccc(-c2c(C)c3c(c(C)c2[C@H](OC(C)(C)C)C(=O)O)CCN(CC(C)(C)C)C3)cc1 [Example 33, (S)-2-(tert-Butoxy)-2-(5,8-dimethyl-2-neopentyl-7-(p-tolyl)-1,2,3,4-tetrahydroisoquinolin-6-yl)acetic Acid] to Cc1c(-c2c(C)c3c(c(C)c2[C@H](OC(C)(C)C)C(=O)O)CC(=O)N(C2CCCC(C)(C)C2)C3)cc(F)c2c1CCCO2 (stereo partly drawn) [Example 111, (2S)-2-(tert-butoxy)-2-((7R)-2-(3,3-dimethylcyclohexyl)-7-(8-fluoro-5-methylchroman-6-yl)-5,8-dimethyl-3-oxo-1,2,3,4-tetrahydroisoquinolin-6-yl)acetic Acid], the IC50 falls from 37 nM to 3 nM (12-fold).

For Cc1c(-c2c(C)c3c(c(C)c2[C@H](OC(C)(C)C)C(=O)O)CC(=O)N(C2CCC(F)(F)CC2)C3)cc(F)c2c1CCCO2 (atropisomer, axis not shown) [Example 114, (S)-2-(tert-butoxy)-2-((R)-2-(4,4-difluorocyclohexyl)-7-(8-fluoro-5-methylchroman-6-yl)-5,8-dimethyl-3-oxo-1,2,3,4-tetrahydroisoquinolin-6-yl)acetic Acid], the IC50 was 3 nM.
